This is an account of results in PubChem BioAssay AID1347042.

The test system of the assay is MutuI BL cells, EBV BHLF1 promoter luciferase, 48 h. Description: EBV lytic cycle activators, dose response, cell-based, MutuI Burkitt lymphoma, luciferase (AID 1347042).

`COC(=O)c1ccccc1NC(=O)N1CCc2c([nH]c3ccc(Cl)cc23)C1c1ccc(OC)cc1` (stereo not given): the EC50 (as a rule, the concentration giving half of the maximal effect) is 158 nM.

On to `COc1ccccc1NC(=O)N1CCc2c([nH]c3ccc(Cl)cc23)C1c1ccc(C)cc1` (stereo not given), for which the EC50 is 170 nM.

Take `COC(=O)c1sccc1NC(=O)N1CCc2c([nH]c3ccc(OC)cc23)C1c1ccc(C)cc1` (stereo not given): the EC50 is 576 nM.

`COc1ccc(C2c3[nH]c4ccc(Cl)cc4c3CCN2C(=O)Nc2ccc(OC)cc2OC)cc1` (stereo not given): the EC50 is 113 nM.

Regarding `CCOC(=O)c1ccccc1NC(=O)N1CCc2c([nH]c3ccc(OC)cc23)C1c1ccc(C)cc1` (stereo not given), the EC50 is 108 nM.
